We go through twelve compounds from PubChem BioAssay (NCI).

Among the test systems are M14 melanoma; K-562 leukemia; UO-31 renal; MDA-N; UACC-62 melanoma; OVCAR-8 ovarian; A498 renal; U251 CNS; OVCAR-4 ovarian; PC-3 prostate; HS 578T breast; SK-OV-3 ovarian.
Experiment in all cases: DTP human tumour cell line panel, 48 h

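Assay format: 96-well plates, 48-hour exposure. TGI: concentration producing complete growth inhibition.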

By TGI is commonly meant the concentration at which net growth stops. Low readings indicate greater sensitivity of the cells, high ones lower sensitivity of the cells.

For `CC1CCN(c2nnc(Cl)cc2C(=O)c2ccccc2)CC1`, the TGI in the assay with M14 melanoma is 95.5 µM; with K-562 leukemia, more than 100 µM; with UO-31 renal, more than 100 µM; with MDA-N, 53.2 µM; with UACC-62 melanoma, more than 100 µM; in the assay with OVCAR-8 ovarian, more than 100 µM. For the same compound, the TGI is more than 100 µM in the assay with A498 renal; more than 100 µM with U251 CNS; more than 100 µM with OVCAR-4 ovarian; more than 100 µM in the assay on PC-3 prostate; 88.7 µM in the assay with HS 578T breast.

Regarding `O=C(/C=C1\N=C(c2ccccc2)N(c2ccc3c(c2)Sc2cc(N4C(=O)/C(=C/C(=O)/C=C/c5ccccc5)N=C4c4ccccc4)ccc2N3)C1=O)/C=C/c1ccccc1`, the TGI in the assay with M14 melanoma was more than 100 µM; with K-562 leukemia, more than 100 µM; in the assay with UO-31 renal, more than 100 µM; in the assay with SK-OV-3 ovarian it was 33.8 µM; in the assay on UACC-62 melanoma, 33.3 µM; in the assay on OVCAR-8 ovarian it was more than 100 µM. The TGI in the assay with A498 renal is 67.8 µM; with U251 CNS, 57.8 µM; in the assay with OVCAR-4 ovarian it was 41.8 µM; in the assay with PC-3 prostate, 37.6 µM; in the assay on HS 578T breast, 96.3 µM.

With `CC(C)(C)NCC(O)COc1cccc2[nH]c(C#N)cc12` (stereo unspecified), the TGI in the assay with M14 melanoma, in the assay with UO-31 renal, with MDA-N, in the assay with SK-OV-3 ovarian, in the assay on UACC-62 melanoma and with OVCAR-8 ovarian was more than 100 µM each time. The TGI in the assay on A498 renal, with U251 CNS, in the assay with OVCAR-4 ovarian, in the assay with PC-3 prostate and in the assay with HS 578T breast was more than 100 µM throughout.

Regarding `COc1cccc(-n2nnc3c(N)nc(N)nc32)c1`, the TGI in the assay on M14 melanoma, with K-562 leukemia, in the assay with MDA-N, with SK-OV-3 ovarian, in the assay with UACC-62 melanoma and with OVCAR-8 ovarian was more than 100 µM throughout. Moreover, the TGI in the assay on A498 renal, in the assay on U251 CNS, in the assay with OVCAR-4 ovarian and in the assay on PC-3 prostate was more than 100 µM in each case.

As to `C=C1C(=O)OC2C(C)C3C=CC(=O)[C@@]3(C)C(OC(=O)/C(C)=C/C)C1[C@@H]2OC(C)=O` (stereo partly specified), the TGI in the assay on M14 melanoma stood at 1.96 µM; with K-562 leukemia, 16 µM; in the assay with UO-31 renal it was 2.48 µM; in the assay on MDA-N it was 0.738 µM; with SK-OV-3 ovarian it was 3.52 µM; in the assay with UACC-62 melanoma, 0.81 µM. The TGI with OVCAR-8 ovarian stood at 0.628 µM; with A498 renal, 2.81 µM; with U251 CNS, 2.36 µM; in the assay on OVCAR-4 ovarian it was 2.53 µM; in the assay with PC-3 prostate, 1.87 µM.

Take `CCOC(=O)c1ccc(N=C/C=C(\Nc2ccc(C(=O)OCC)cc2)c2ccc3ccccc3c2)cc1`: the TGI was 59 µM in the assay with M14 melanoma; 56.7 µM with K-562 leukemia; more than 100 µM in the assay with UO-31 renal; more than 100 µM in the assay with SK-OV-3 ovarian; 30.5 µM with UACC-62 melanoma; more than 100 µM in the assay with OVCAR-8 ovarian. Also, the TGI with A498 renal was more than 100 µM; in the assay with U251 CNS it was more than 100 µM; with OVCAR-4 ovarian it was 80.3 µM; in the assay on PC-3 prostate, more than 100 µM; in the assay on HS 578T breast, 96.3 µM.

`CCCCCCc1cc(C=O)sc1-c1ccc(-c2sc(-c3ccc(-c4ccc(-c5cc(CCCCCC)c(-c6ccc(-c7sc(C=O)cc7CCCCCC)s6)s5)s4)s3)cc2CCCCCC)s1`: the TGI in the assay with M14 melanoma, in the assay on K-562 leukemia, with UO-31 renal, in the assay with MDA-N, with SK-OV-3 ovarian and in the assay with UACC-62 melanoma was more than 100 µM each time. Also, the TGI in the assay on OVCAR-8 ovarian, in the assay on A498 renal, in the assay on U251 CNS, in the assay with OVCAR-4 ovarian and with PC-3 prostate was more than 100 µM throughout.

Consider `O=C(O)CCCN1CCCCC1`, for which the TGI with M14 melanoma, in the assay with K-562 leukemia, in the assay with UO-31 renal, in the assay on MDA-N, with UACC-62 melanoma and in the assay on OVCAR-8 ovarian was more than 100 µM in each case. For the same compound, the TGI with A498 renal, with U251 CNS, with OVCAR-4 ovarian, in the assay on PC-3 prostate and in the assay on HS 578T breast was more than 100 µM throughout.

`COc1cc(/C=C\c2ccc(SC)cc2)cc(OC)c1OC`: the TGI in the assay on M14 melanoma is more than 100 µM; with K-562 leukemia it was more than 46.8 µM; in the assay with UO-31 renal, 45.3 µM; with SK-OV-3 ovarian, 1.75 µM; with UACC-62 melanoma, more than 100 µM; in the assay on OVCAR-8 ovarian, more than 41 µM. In addition, the TGI in the assay with A498 renal was more than 54.1 µM; with U251 CNS, 1.11 µM; in the assay on OVCAR-4 ovarian, more than 100 µM; in the assay on PC-3 prostate, more than 100 µM; in the assay on HS 578T breast, more than 100 µM.

Take `COC(=O)c1ccc(/C=C/C2=CC(=O)C=CC2=O)cc1`: the TGI in the assay on M14 melanoma was more than 67.2 µM; in the assay with K-562 leukemia it was 8.55 µM; in the assay with UO-31 renal it was 17.9 µM; in the assay with MDA-N, more than 100 µM; in the assay on UACC-62 melanoma it was 40.2 µM; in the assay with OVCAR-8 ovarian, 61.5 µM. Further, the TGI in the assay on A498 renal was 38.6 µM; in the assay on U251 CNS, 41.7 µM; in the assay with OVCAR-4 ovarian, 42 µM; in the assay with PC-3 prostate, 60.6 µM; in the assay on HS 578T breast, more than 100 µM.

`CC(C)(C)c1cc(C2COC(=O)COCCOCC(=O)OCCOCCO2)cc(C(C)(C)C)c1O` (stereo unspecified): the TGI with M14 melanoma was more than 100 µM; in the assay on K-562 leukemia, more than 100 µM; in the assay on UO-31 renal it was 30.5 µM; in the assay with SK-OV-3 ovarian, more than 78.4 µM; in the assay on UACC-62 melanoma, more than 100 µM; with OVCAR-8 ovarian, more than 100 µM. In addition, the TGI with A498 renal was more than 100 µM; with U251 CNS, more than 100 µM; with OVCAR-4 ovarian it was more than 100 µM; with PC-3 prostate, 63.3 µM; in the assay with HS 578T breast it was 77.7 µM.

In the case of `COCOc1cc(OC)ccc1C=O`, the TGI is more than 100 µM in the assay on M14 melanoma; more than 100 µM with K-562 leukemia; more than 100 µM in the assay on UO-31 renal; 23.7 µM in the assay with MDA-N; more than 100 µM in the assay with SK-OV-3 ovarian; more than 100 µM with UACC-62 melanoma. Besides, the TGI was more than 100 µM in the assay with OVCAR-8 ovarian; more than 100 µM in the assay on U251 CNS; more than 100 µM in the assay with OVCAR-4 ovarian; 88.8 µM in the assay with PC-3 prostate; 64.9 µM in the assay with HS 578T breast.
